# From patent publication US20140249167A1, “Administration of NEDD8-Activating Enzyme Inhibitor” (priority 2010, published 2014)
# “Also recorded” adds a separate entry of the source.
# Experiments:
# Format in all cases: in vivo
# [1] = system: adults with advanced nonhematologic malignancies (solid tumors); assay: Study C15001, phase 1, four 21-day dose schedules; conditions: for Findings: Prolonged stable disease in (tumor, cycles): as of Oct. 16, 2011; for DLTs occurred (Grade 3 LFTs): in vivo
# Procedure: Study C15001 is a first-in-human, phase 1 study in adults with advanced nonhematologic malignancies testing the tolerability of four 21-day dose schedules, including the following: Schedule A: QD×5; Schedule B: Days 1, 3, and 5 given with dexamethasone; and Schedule C: Days 1, 3, and 5 given without dexamethasone. Dose escalation is based on an adaptive approach using the continual reassessment method (CRM).
# Schedule A (QD×5) testing started with 25 mg/m^2 and proceeded through 83 mg/m^2. Increases in liver function tests (LFTs) (AST, ALT, ALP and bilirubin) occurred during Cycle 1 following both single and multiple MLN4924 doses. LFT increases were dose limiting at doses exceeding 50 mg/m^2. Grade 3 and 4 LFT elevations occurred in 2 patients, who both died during the first week of study treatment. One death occurred in a patient with widely metastatic breast cancer receiving 61 mg/m^2, and the second occurred in a patient with advanced colon cancer receiving 83 mg/m^2. In both cases, the investigators assessed the hepatic toxicity as possibly related to MLN4924. As a result of these deaths and their association with increases in transaminase and bilirubin, all ongoing MLN4924 studies were amended to require that bilirubin levels be normal (<ULN) and that ALT and AST levels correspond with […] Grade 1 intensity before administering initial and all subsequent doses of MLN4924. LFTs are checked prior to administration of every dose.
# The MTD for Study C15001 Schedule A was determined to be 50 mg/m^2 QD×5. […] Three DLTs have occurred on Schedule B (Grade 3 LFTs), and 2 DLTs have occurred on Schedule C (Grade 3 LFTs). The MTD for these dosing schedules was determined to be 50 mg/m^2 and 67 mg/m^2, respectively. […]
# Study C15001 is a phase 1 study in adults with advanced nonhematologic malignancies testing the tolerability of four 21-day dose schedules, including one intermittent dosing schedule, Schedule D, on which doses are administered on Days 1, 8, and 15 as a 3-hour infusion. As of Oct. […] Patients have been enrolled to the following dose levels: 147 mg/m^2 and 196 mg/m^2. Testing continues, and dose escalation is based on an adaptive approach using the continual reassessment method (CRM). […]
# [2] = system: adults with lymphoma or multiple myeloma; assay: Study C15002, phase 1, 3 dose schedules on a 21-day cycle
# Excerpt: Study C15002 is a phase 1 study in adults with lymphoma or multiple myeloma testing 3 dose schedules, each repeated on a 21-day cycle. One such schedule is Schedule A: Days 1, 2, 8, and 9.
# As used herein, “dose-limiting toxicity” (DLT) is defined as any of the following events that are considered by the administering physician to be related to therapy with MLN4924: • Grade 4 neutropenia (ANC<500 cells/mm^3) lasting more than 7 consecutive days • Grade 3 neutropenia with fever and/or infection, where fever is defined as an oral temperature[…] • Grade 4 thrombocytopenia (platelets<25,000/mm^3 but >10,000/mm^3) lasting more than 7 consecutive days • Grade 3 thrombocytopenia with bleeding • A platelet count<10,000/mm^3 at any time • Grade 3 or greater nausea and/or emesis despite the use of optimal anti-emetic prophylaxis (wherein “optimal anti-emetic prophylaxis” is defined as an anti-emetic regimen that employs a 5-HT3 antagonist given in standard doses and according to standard schedules). Dexamethasone should not be used because of its CYP3A-inducing effects. • Grade 3 or greater diarrhea that occurs despite maximal supportive therapy • An absolute reduction in LVEF of ≧10% to a value<50% (e.g., LVEF=45% in a patient with LVEF=55% at baseline) • A decrease in LVEF to <40% • An increase in PASP to >50 mm Hg or 3× baseline • Any other Grade 3 or greater nonhematologic toxicity with the following exceptions: • Grade 3 arthralgia/myalgia • Brief (<1 week) Grade 3 fatigue • Grade 3 fever that occurs in the absence of Grade 3 or worse neutropenia or documented infection following daily administration of MLN4924 • Treatment delay of more than 1 week because of a lack of adequate recovery of MLN4924-related hematological or nonhematologic toxicities • MLN4924-related toxicity that requires that any doses of MLN4924 are missed during a cycle or discontinuation of therapy with MLN4924
# Study C15002 is a phase 1 study in adults with lymphoma or multiple myeloma testing 3 dose schedules, each repeated on a 21-day cycle. Two such schedules are intermittent dosing schedules, Schedule B: Days 1, 4, 8, and 11; and Schedule C: Days 1 and 8. As of Oct. […] Patients on Schedule B were enrolled to dose levels of 110 mg/m^2, 147 mg/m^2, 196 mg/m^2 and 261 mg/m^2 before the MTD was determined to be 196 mg/m^2. […]
# (§1) Although DLTs can occur at any point during treatment, only DLTs occurring during Cycle 1 of treatment will necessarily influence decisions regarding dose escalation, expansion of a dose level, or evaluation of intermediate dose levels. Patients are monitored through all cycles of therapy for treatment-related toxicities.
# [3] = system: adults with acute myelogenous leukemia and myelodysplastic syndrome; assay: Study C15003, phase 1, 3 dose schedules on a 21-day cycle
# [4] = system: adults with metastatic melanoma; assay: Study C15005, phase 1 dose-escalation study
# Procedure: As used herein, “dose-limiting toxicity” (DLT) is defined as any of the following events that are considered by the administering physician to be related to therapy with MLN4924: • Grade 4 neutropenia (ANC<500 cells/mm^3) lasting more than 7 consecutive days • Grade 3 neutropenia with fever and/or infection, where fever is defined as an oral temperature[…] • Grade 4 thrombocytopenia (platelets<25,000/mm^3 but >10,000/mm^3) lasting more than 7 consecutive days • Grade 3 thrombocytopenia with bleeding • A platelet count<10,000/mm^3 at any time • Grade 3 or greater nausea and/or emesis despite the use of optimal anti-emetic prophylaxis (wherein “optimal anti-emetic prophylaxis” is defined as an anti-emetic regimen that employs a 5-HT3 antagonist given in standard doses and according to standard schedules). […]
# Study C15005 is a phase 1, dose-escalation study in adults with metastatic melanoma testing MLN4924 dosing on Days 1, 4, 8, and 11 (Schedule A) or Days 1, 8 and 15 (Schedule B) repeated every 21 days. […] Patients were enrolled to dose levels of 50 mg/m^2, 67 mg/m^2, 89 mg/m^2, 118 mg/m^2, 157 mg/m^2, 209 mg/m^2 and 278 mg/m^2 before the MTD was determined to be 209 mg/m^2. […]
# as §1
# [5] = Schedule B: Days 1, 4, 8, 11, at 147 mg/m^2
compound,measurement,setting,value
"NS(=O)(=O)OC[C@@H]1C[C@@H](n2ccc3c(N[C@H]4CCc5ccccc54)ncnc32)C[C@@H]1O [MLN4924, ((1S,2S,4R)-4-(4-((1S)-2,3-dihydro-1H-inden-1-ylamino)-7H-pyrrolo[2,3-d]-pyrimidin-7-yl)-2-hydroxycyclopentyl)methyl sulfamate]",Doses at which LFT increases were dose limiting,"[1]; Schedule A (QD×5), Cycle 1, AST, ALT, ALP and bilirubin",exceeding 50 mg/m^2
same,"Grade 3 and 4 LFT elevations, patients who both died during first week of treatment","[1]; Schedule A, one at 61 mg/m^2, one at 83 mg/m^2",2 patients
same,"Dose, MTD not reached (→)","[1]; Schedule D: Days 1, 8, 15, 3-hr infusion, 21-day cycle, solid tumors",≥ 196 mg/m^2
same,"Findings: Prolonged stable disease in (tumor, cycles)","[1]; Schedule D: Days 1, 8, 15, 3-hr infusion",Colon cancer (6+ cycles); also recorded: NSCLC^5 (5+ cycles)
same,"Findings: Prolonged stable disease in (tumor, cycles)","[1]; Schedules A, B, C (findings cell spans the three schedules)","Melanoma (7, 7, 10 cycles); also recorded: SCLC^5 (7 cycles),; also recorded: CRC^5 (5, 5, 9 cycles),; also recorded: Breast (5, 7 cycles); also recorded: Head and Neck (7 cycles)"
same,DLTs occurred (Grade 3 LFTs),"[1]; human, 21 days",2
same,DLTs occurred (Grade 3 LFTs),[1],Three DLTs
same,Findings,"[2]; Schedule A: Days 1, 2, 8, 9, Hodgkin's Lymphoma (7 cycles)",Partial remission in Hodgkin's
same,Adverse event in one patient (did not contribute to definition of MTD),"[2]; Schedule A, 110 mg/m^2 expansion cohort",Grade 3 AST and ALT elevation
same,DLTs observed,"[2]; Schedule B: Days 1, 4, 8, 11, as of Oct. 7, 2011",no DLTs have been observed
same,DLTs,"[2]; Schedule C: Days 1 and 8, at 196 mg/m^2",One DLT occurred on Schedule C at 196 mg/m^2 (reversible Grade 3 renal failure)
same,DLTs,"[3]; Schedule A: Days 1, 3, 5, at 78 mg/m^2",Two DLTs occurred at 78 mg/m^2 (multi-organ failure and reversible elevation of ALT)
same,Kind of DLTs,[3]; [5],"lactic acidosis and hypotension, GI necrosis, and acute renal failure"
same,Number of DLTs,[3]; [5],Four DLTs in three patients
same,MTD (maximum tolerated dose),"[3]; Schedule B: Days 1, 4, 8, 11 of 21-day cycle, AML, MDS",83 mg/m^2
same,"Findings: Prolonged stable disease in (tumor, cycles)","[4]; Schedule A: Days 1, 4, 8, 11","Melanoma (5, 6, 6, 6, 10, 12 cycles)"
same,"Findings: Prolonged stable disease in (tumor, cycles)","[4]; Schedule B: Days 1, 8, 15",Melanoma (11+ cycles)
same,Number of DLTs,[4]; in vivo,two DLTs have occurred
